Measured values from PubChem BioAssay AID302 (DTP/NCI, 2004).
Values joined by “and” are separate entries in the source; they are usually repeats but may differ in a detail not shown here. Equal entries are not always repeated. Inconclusive results and toxic doses are left out. Rule for the calls: active = survival T/C of 150% or more; inactive = T/C below 125% in these data.

System: BALB/c mice, Madison 109 lung carcinoma i.m., survival
Assay: NCI In Vivo Anticancer Drug Screen. Data for tumor model Madison 109 Lung Carcinoma (intramuscular) in BALB/CM mice
Conditions: endpoint: median survival time, higher = longer survival
Experimental: The antitumor activity of compounds was measured in mice bearing transplantable tumors. Survival or tumor size were measured and the results are expressed as the measurement made in the treated group (T) divided by the measurement made in the vehicle treated control group (C). The tumor model used in this assay is Madison 109 Lung Carcinoma (intramuscular) in BALB/CM mice

[1] = dose: 0.12 mg/kg/injection, schedule: Q01DX009 (ip), vehicle: saline
[2] = dose: 0.25 mg/kg/injection, schedule: Q01DX009 (ip), vehicle: saline
[3] = dose: 0.5 mg/kg/injection, schedule: Q01DX009 (ip), vehicle: saline
[4] = dose: 8.0 mg/kg/injection, schedule: Q01DX009 (ip), vehicle: saline with Tween-80
[5] = dose: 16.0 mg/kg/injection, schedule: Q01DX009 (ip), vehicle: saline with Tween-80
[6] = dose: 32.0 mg/kg/injection, schedule: Q01DX009 (ip), vehicle: saline with Tween-80
[7] = dose: 64.0 mg/kg/injection, schedule: Q01DX009 (ip), vehicle: saline with Tween-80
[8] = dose: 25.0 mg/kg/injection, schedule: Q01DX009 (ip), vehicle: saline with Tween-80
[9] = dose: 100.0 mg/kg/injection, schedule: Q01DX009 (ip), vehicle: saline with Tween-80
[10] = dose: 400.0 mg/kg/injection, schedule: Q01DX009 (ip), vehicle: saline with Tween-80
[11] = dose: 12.5 mg/kg/injection, schedule: Q01DX009 (ip), vehicle: saline with Tween-80
[12] = dose: 50.0 mg/kg/injection, schedule: Q01DX009 (ip), vehicle: saline with Tween-80
[13] = dose: 200.0 mg/kg/injection, schedule: Q01DX009 (ip), vehicle: saline with Tween-80
[14] = dose: 128.0 mg/kg/injection, schedule: Q01DX009 (ip), vehicle: saline with Tween-80
[15] = dose: 256.0 mg/kg/injection, schedule: Q01DX009 (ip), vehicle: saline with Tween-80
[16] = dose: 512.0 mg/kg/injection, schedule: Q01DX009 (ip), vehicle: saline with Tween-80
[17] = dose: 800.0 mg/kg/injection, schedule: Q01DX009 (ip), vehicle: saline with Tween-80
[18] = dose: 1600.0 mg/kg/injection, schedule: Q01DX009 (ip), vehicle: saline with Tween-80
[19] = dose: 0.12 mg/kg/injection, schedule: Q01DX009 (ip), vehicle: water
[20] = dose: 0.5 mg/kg/injection, schedule: Q01DX009 (ip), vehicle: water
[21] = dose: 1.0 mg/kg/injection, schedule: Q01DX009 (ip), vehicle: water
[22] = dose: 0.25 mg/kg/injection, schedule: Q01DX009 (ip), vehicle: saline with Tween-80
[23] = dose: 0.5 mg/kg/injection, schedule: Q01DX009 (ip), vehicle: saline with Tween-80
[24] = dose: 2.0 mg/kg/injection, schedule: Q01DX009 (ip), vehicle: saline with Tween-80

Measured: T/C

COc1ccc(CC2C(=O)NC(C)C(=O)N(C)C3C(=O)N(C)C(Cc4ccc(O)c(c4)Oc4ccc(cc4)C3O)C(=O)NC(C)C(=O)NC(C)C(=O)N2C)cc1 (stereo not given)
inactive: [1] 110 % of control | [2] 113 % of control | [3] 113 % of control | dose: 2.0 mg/kg/injection, schedule: Q01DX009 (ip), vehicle: saline 103 % of control

O=S(=O)(O)O
inactive: [4] 109 % of control | [5] 108 % of control | [6] 111 % of control | [7] 112 % of control

O=C(O)CCCc1ccc(N(CCCl)CCCl)cc1
inactive: dose: 1.5 mg/kg/injection, schedule: Q01DX009 (ip), vehicle: saline with Tween-80 103 % of control | dose: 3.0 mg/kg/injection, schedule: Q01DX009 (ip), vehicle: saline with Tween-80 101 % of control | dose: 6.0 mg/kg/injection, schedule: Q01DX009 (ip), vehicle: saline with Tween-80 88 % of control

ClC1C(Cl)C(Cl)C(Cl)C(Cl)C1Cl (stereo not given)
inactive: [8] 116 % of control | [9] 119 % of control | [10] 86 % of control

ClC1=C(Cl)C2(Cl)C3C(Cl)C(Cl)CC3C1(Cl)C2(Cl)Cl (stereo not given)
inactive: dose: 6.25 mg/kg/injection, schedule: Q01DX009 (ip), vehicle: saline with Tween-80 110 % of control and 113 % of control | [11] 100 % of control and 120 % of control | [8] 89 % of control and 95 % of control | [12] 102 % of control and 116 % of control

CCOC(=O)CC(SP(=S)(OC)OC)C(=O)OCC (stereo not given)
inactive: [8] 108 % of control | [12] 112 % of control | [9] 121 % of control | [13] 96 % of control

Cc1cn(C2CC(O)C(CO)O2)c(=O)[nH]c1=O (stereo not given)
inactive: [6] 94 % of control and 101 % of control | [7] 103 % of control and 108 % of control | [9] 108 % of control and 112 % of control | [14] 102 % of control and 105 % of control | [13] 100 % of control and 102 % of control | [15] 95 % of control and 97 % of control | [10] 101 % of control and 103 % of control | [16] 102 % of control and 103 % of control | [17] 106 % of control and 107 % of control | [18] 96 % of control and 99 % of control

c1ccc([C@H]2CN3CCSC3=N2)cc1
inactive: dose: 5.0 mg/kg/injection, schedule: Q01DX009 (ip), vehicle: saline 94 % of control | dose: 10.0 mg/kg/injection, schedule: Q01DX009 (ip), vehicle: saline 96 % of control | dose: 20.0 mg/kg/injection, schedule: Q01DX009 (ip), vehicle: saline 103 % of control

Nc1n[nH]c(N)n1
inactive: [9] 93 % of control | [13] 101 % of control | [10] 104 % of control | [17] 110 % of control | [18] 108 % of control

COc1cccc2c1C(=O)c1c(O)c3c(c(O)c1C2=O)C[C@@](O)(C(=O)CO)C[C@@H]3OC1CC(N)C(O)C(C)O1 (stereo not given in full)
inactive: [1] 110 % of control | [19] 122 % of control | [2] 114 % of control | [3] 112 % of control and 116 % of control | [20] 119 % of control | dose: 1.0 mg/kg/injection, schedule: Q01DX009 (ip), vehicle: saline 94 % of control and 111 % of control | [21] 115 % of control | dose: 10.0 micrograms/mouse/injection, schedule: Q01DX005 (ip), vehicle: saline 96 % of control | dose: 20.0 micrograms/kg/injection, schedule: Q01DX005 (ip), vehicle: saline 123 % of control | dose: 20.0 micrograms/mouse/injection, schedule: Q01DX005 (ip), vehicle: saline 102 % of control | dose: 40.0 micrograms/kg/injection, schedule: Q01DX005 (ip), vehicle: saline 115 % of control | dose: 40.0 micrograms/mouse/injection, schedule: Q01DX005 (ip), vehicle: saline 105 % of control

CCOC(=O)NC1=C(N2CC2)C(=O)C(NC(=O)OCC)=C(N2CC2)C1=O
inactive: dose: 0.12 mg/kg/injection, schedule: Q01DX009 (ip), vehicle: saline with Tween-80 99 % of control and 102 % of control and 111 % of control | [22] 105 % of control and 111 % of control | [23] 103 % of control and 105 % of control

COc1cccc2c1C(=O)c1c(O)c3c(c(O)c1C2=O)C[C@@](O)(C(C)=O)C[C@@H]3OC1CC(N)C(O)C(C)O1 (stereo not given in full)
inactive: [19] 110 % of control | dose: 0.25 mg/kg/injection, schedule: Q01DX009 (ip), vehicle: water 102 % of control | [20] 118 % of control | [21] 118 % of control

CC(=O)Nc1ccc(/C=N/NC(N)=S)cc1
inactive: [8] 106 % of control and 108 % of control | [12] 94 % of control and 108 % of control | [9] 92 % of control and 124 % of control | [13] 89 % of control | [10] 113 % of control and 114 % of control

Nc1ncnc2nc[nH]c12
inactive: [24] 120 % of control | dose: 4.0 mg/kg/injection, schedule: Q01DX009 (ip), vehicle: saline with Tween-80 119 % of control | [4] 101 % of control and 108 % of control | [5] 90 % of control and 117 % of control and 120 % of control

CN(C)c1nc(N(C)C)nc(N(C)C)n1
inactive: [11] 104 % of control | [8] 90 % of control and 103 % of control | [12] 97 % of control and 102 % of control | [9] 99 % of control

O=c1ccn(C2OC(CO)C(O)C2O)c(=O)[nH]1 (stereo not given)
inactive: dose: 32.0 mg/kg/injection, schedule: Q01DX009 (ip), vehicle: saline 111 % of control | dose: 64.0 mg/kg/injection, schedule: Q01DX009 (ip), vehicle: saline 99 % of control | dose: 128.0 mg/kg/injection, schedule: Q01DX009 (ip), vehicle: saline 93 % of control | dose: 256.0 mg/kg/injection, schedule: Q01DX009 (ip), vehicle: saline 104 % of control | dose: 512.0 mg/kg/injection, schedule: Q01DX009 (ip), vehicle: saline 98 % of control

COc1cccc2c1C(=O)c1c(O)c3c(c(O)c1C2=O)C[C@@](O)(/C(C)=N/NC(=O)c1ccccc1)C[C@@H]3OC1CC(N)C(O)C(C)O1 (stereo not given in full)
inactive: [22] 104 % of control | [23] 111 % of control | dose: 1.0 mg/kg/injection, schedule: Q01DX009 (ip), vehicle: saline with Tween-80 124 % of control | [24] 86 % of control and 118 % of control

COC1C(O)CC(OC2CC(Oc3cc4cc5c(c(O)c4c(O)c3C)C(=O)[C@@H](OC3CC(OC4CC(OC6CC(C)(O)C(OC(C)=O)C(C)O6)C(O)C(C)O4)C(O)C(C)O3)[C@H]([C@H](OC)C(=O)[C@@H](O)[C@@H](C)O)C5)OC(C)C2OC(C)=O)OC1C (stereo not given in full)
inactive: dose: 0.01 mg/kg/injection, schedule: Q01DX009 (ip), vehicle: saline 100 % of control | dose: 0.03 mg/kg/injection, schedule: Q01DX009 (ip), vehicle: saline 102 % of control | dose: 0.06 mg/kg/injection, schedule: Q01DX009 (ip), vehicle: saline 105 % of control | [1] 95 % of control

O=c1cc[nH]c(=O)[nH]1
inactive: [6] 95 % of control and 110 % of control | [7] 96 % of control and 110 % of control | [14] 102 % of control and 105 % of control | [15] 100 % of control and 110 % of control | [16] 94 % of control and 107 % of control

Nc1ccc(S(N)(=O)=O)cc1
inactive: [8] 95 % of control | [12] 108 % of control and 115 % of control | [9] 119 % of control | [13] 105 % of control and 119 % of control | [10] 102 % of control and 113 % of control
